# PMC13131050, “Nicotinamide-Loaded Peptoid Nanotubes for Energy Regeneration in Acute Brain Injury” (ACS Nano, 2026)
# Counter-ions that a name gives are not always drawn.
# Assays:
# [1] = test system: BV-2 cells; test: Inhibition of DNS-PNT uptake by endocytic pathway inhibitors in BV-2 cells; format: cell-based, murine; conditions: inhibitor 10 μM, 1 h pre-incubation, DNS-PNT 20 μg/mL 24 h with or without inhibitor; confocal imaging
# Protocol: BV-2 cells were seeded at a density of 10,000 cells per well in a 96-well plate and cultured for 2 days. […] Following uptake, the medium containing PNTs was collected, and the cells were further incubated in fresh CCM for 1 or 24 h to allow exocytosis. The supernatant was subsequently collected, and the cells were washed three times with PBS. […] Fluorescence intensity was measured directly at 335/518 nm excitation and emission using a Synergy H1 multimodal microplate reader. For inhibition studies, BV-2 cells were seeded in 35 mm culture dishes (VWR) at a density of 300,000 cells and cultured for 2 days. […] The inhibitors used were chlorpromazine hydrochloride (Sigma), cytochalasin D (Sigma), amiloride hydrochloride hydrate (Sigma), sucrose (Thermo Fisher Scientific), and genistein (Sigma). − After treatment, cells were incubated with LysoTracker (75 nM, Invitrogen) for 1 h and fixed with 10% formalin phosphate buffer (Thermo Fisher Scientific) for 10 min. Subsequently, cells were stained with Tomato Lectin (1 μg/mL, 1 h) and ToPro-3 (0.1 μg/mL, 15 min; Thermo Fisher Scientific) in PBS at room temperature. Confocal images were acquired using a Nikon microscope (40× and […] oil immersion objectives, 1.30 numerical aperture; Nikon Corporation, Minato City, Tokyo, Japan).
# [2] = test system: BV-2 cells; test: MTT cell viability / cytotoxicity in healthy BV-2 cells; format: cell-based, murine; conditions: 3 doses equivalent to NAM-PNT, 24 h (Figure S11)
# Protocol: Murine microglia BV-2 cells were purchased from ATCC (CRL-2469) and cultured based on previous literature. Briefly, BV-2 cells were cultured in cell culture media (CCM, high-glucose, phenol red-free DMEM supplemented with 10% FBS, 1% glutamine, and 1% 100 U/mL penicillin–streptomycin) at 37 °C under a 5% CO2 atmosphere. The passage number of BV-2 cells used in this study was between 7 and 15. At 70–80% confluency, BV-2 cells were passaged and seeded in a 96-well plate for further experiments. […] Cell cytotoxicity was identified by the standard 3-(4,5-dimethylthiazol-2-yl)-2,5-diphenyltetrazolium bromide (MTT) assay (Thermo Fisher Scientific) on healthy cells. After 24 h, cells were incubated with fresh media containing 10 μL of 12 mM MTT solution in PBS for 4 h. Following the addition of 50 μL of […] (DMSO), the absorbance was recorded by a Synergy H1 multimodal microplate reader at a wavelength of 540 nm. Cell viability was measured using the alamarBlue (aBlue) Cell Viability Reagent (Thermo Fisher Scientific). […] The plate was measured directly at 560/590 nm excitation/emission fluorescence on a Synergy H1 multimodal microplate reader. Readings were normalized to those of healthy controls. […] Data were collected using a Synergy H1 multimodal microplate reader. For the OGD studies, readings were normalized to the average value of the OGD controls.
# [3] = test system: OGD-exposed BV-2 cells; test: AlamarBlue cell viability / metabolic activity in OGD-exposed BV-2 cells; format: cell-based, murine; conditions: 10 min OGD, then treatment, normalized to OGD controls
# Protocol: Murine microglia BV-2 cells were purchased from ATCC (CRL-2469) and cultured based on previous literature. Briefly, BV-2 cells were cultured in cell culture media (CCM, high-glucose, phenol red-free DMEM supplemented with 10% FBS, 1% glutamine, and 1% 100 U/mL penicillin–streptomycin) at 37 °C under a 5% CO2 atmosphere. The passage number of BV-2 cells used in this study was between 7 and 15. At 70–80% confluency, BV-2 cells were passaged and seeded in a 96-well plate for further experiments. […] Following the addition of 50 μL of […] (DMSO), the absorbance was recorded by a Synergy H1 multimodal microplate reader at a wavelength of 540 nm. Cell viability was measured using the alamarBlue (aBlue) Cell Viability Reagent (Thermo Fisher Scientific). […] The plate was measured directly at 560/590 nm excitation/emission fluorescence on a Synergy H1 multimodal microplate reader. Readings were normalized to those of healthy controls. […] Data were collected using a Synergy H1 multimodal microplate reader. For the OGD studies, readings were normalized to the average value of the OGD controls.
# [4] = test system: OGD-exposed OWH brain slices; test: Propidium iodide cell death in OGD-exposed OWH brain slices; format: cell-based, rat; conditions: OGD-exposed P10 OWH slices, cortex and striatum, 24 h treatment, n = 7
# Protocol: All treatments were applied topically.
# After 24 h of treatment, slices were stained with 1 mL of 5 μg/mL PI (Thermo Fisher Scientific) in SCM for 45 min under standard culture conditions as previously described. , The staining solution was placed underneath the inset. Slices were washed twice for 3 min each with sterile 1× PBS at room temperature, followed by a 1 h wash with 37 °C SCM under culturing conditions, and then fixed with 10% formalin phosphate buffer (Thermo Fisher Scientific) for 1 hour. Following two final washes with room temperature 1× PBS, slices were stored covered at 4 °C until they were ready for use. Within 2 weeks, slices were stained for 15 min with 0.1 μg/mL DAPI (Thermo Fisher Scientific) in 1× PBS at room temperature. Slices were washed twice for 3 min each with 1× PBS prior to imaging. […] For each image, DAPI+ cell nuclei (total cells) and PI+ cell nuclei (dead cells) that were also DAPI+ were counted manually in ImageJ (NIH) after applying an Otsu threshold and fluorescence cutoff to aid in visualization. , The fluorescence cutoff was kept consistent across all images. The PI+/DAPI+ cell ratio was expressed as the percentage of dead cells in an individual image.
# [5] = test system: BV-2 cells; test: Intracellular ATP level (luminescent ATP detection kit) in BV-2 cells; format: cell-based, murine
# Protocol: We prepared OGD media as previously described. , OGD media consisted of 120 mM sodium chloride (NaCl, MilliporeSigma), 5 mM potassium chloride (KCl, MilliporeSigma), 2 mM calcium chloride (CaCl2, MilliporeSigma), 1.25 mM monosodium phosphate anhydrous (NaH2PO4, MilliporeSigma), 2 mM magnesium sulfate (MgSO4, MilliporeSigma), 25 mM sodium bicarbonate (NaHCO3, MilliporeSigma), and 20 mM HEPES in DI water. The OGD medium was sterile-filtered (0.2 μm), titrated to pH 7.4 with 1 M hydrochloric acid (Thermo Fisher Scientific) or 1 M sodium hydroxide (Thermo Fisher Scientific), bubbled with nitrogen gas (Praxair, Danbury, CT, USA) for at least 10 min, and prewarmed to 37 °C prior to use. […] Following the addition of 50 μL of […] (DMSO), the absorbance was recorded by a Synergy H1 multimodal microplate reader at a wavelength of 540 nm. Cell viability was measured using the alamarBlue (aBlue) Cell Viability Reagent (Thermo Fisher Scientific). […] The plate was measured directly at 560/590 nm excitation/emission fluorescence on a Synergy H1 multimodal microplate reader. Readings were normalized to those of healthy controls. […] Data were collected using a Synergy H1 multimodal microplate reader. For the OGD studies, readings were normalized to the average value of the OGD controls.
# [6] = AFM dimensions (height, length) of peptoid nanotubes; format: physicochemical; conditions: nanotubes assembled from the named peptoid; ex-situ AFM on mica
# Protocol: The lengths of PNTs can be adjusted through sonication.
# PNTs were prepared using the slow evaporation method to self-assemble the peptoids. Typically, 1 μmol of peptoid was treated with 2 μL of trifluoroacetic acid (TFA) and dried under a flow of N2. Subsequently, 100 μL of acetonitrile was added, followed by the addition of 0.5 M NaOH. Deionized water was then added to bring the total volume to 200 μL. The samples were left at 4 °C for slow evaporation until a gel-like solution was obtained. Ex situ Atomic Force Microscopy (AFM) analysis was conducted using a Bruker MultiMode 8 in ScanAsyst mode at room temperature. For sample preparation, 1.5 μL of the self-assembled peptoid was diluted 40 times with deionized water and deposited on a mica substrate. After 5 min, Whatman filter paper was used to remove the solution, and then the dried mica substrate was further dried under N2 flow. The AFM probe consisted of silicon tips on silicon cantilevers (NCHV probes, k = 42 N/m, tip radius). Scanning electron microscopy (SEM) images were captured from the samples deposited on a silicon wafer using the Apreo2S scanning electron microscope by Thermo Fisher. The imaging process employed an ETD detector, an excitation voltage of 2 kV, a current of 0.2 nA, and a working distance of around 8 mm. […] XRD data were analyzed using custom Python scripts.
compound,measurement,setting,value
OC[C@H]1O[C@@](CO)(O[C@H]2O[C@H](CO)[C@@H](O)[C@H](O)[C@H]2O)[C@@H](O)[C@@H]1O [sucrose],Effect of inhibitor on DNS-PNT internalization into BV-2 cells,[1],reduced PNT uptake
"N=C(N)NC(=O)c1nc(Cl)c(N)nc1N [amiloride, amiloride hydrochloride hydrate]",Effect of inhibitor on DNS-PNT internalization into BV-2 cells,[1],minimal impact
"NC(=O)C1=CN([C@@H]2O[C@H](COP(=O)(O)OP(=O)(O)OC[C@H]3O[C@@H](n4cnc5c(N)ncnc54)[C@H](O)[C@@H]3O)[C@@H](O)[C@H]2O)C=CC1 [free NAD+, β-nicotinamide adenine dinucleotide]",Increase in cell viability with free drug (MTT),[2],increase was not seen
same,Metabolic activity / cell viability (AlamarBlue) versus OGD control,[3],no effect
same,Cell death (percentage of PI+ cells),[4],did not improve cell viability
"NC(=O)c1cccnc1 [free NAM, nicotinamide]",Increase in cell viability with free drug (MTT),[2],increase was not seen
same,Improvement of intracellular ATP level after OGD energy depletion,"[5]; OGD-exposed BV-2 cells, free drug",did not
same,Cellular ATP level in healthy cells,"[5]; healthy BV-2 cells, 24 h (Figure S16a)",limited increase compared to NAM-PNTs
O=c1c(-c2ccc(O)cc2)coc2cc(O)cc(O)c12 [genistein],Effect of inhibitor on DNS-PNT internalization into BV-2 cells,[1],significantly suppressed PNT signals
"C=C1[C@@H](C)[C@H]2[C@H](Cc3ccccc3)NC(=O)[C@]23[C@H](OC(C)=O)/C=C/[C@@](C)(O)C(=O)[C@@H](C)C/C=C/[C@H]3[C@@H]1O [Cytochalasin D, cytochalasin D]",Effect of inhibitor on DNS-PNT internalization into BV-2 cells,[1],significantly suppressed PNT signals
"CN(C)CCCN1c2ccccc2Sc2ccc(Cl)cc21 [chlorpromazine, chlorpromazine hydrochloride]",Effect of inhibitor on DNS-PNT internalization into BV-2 cells,[1],minimal impact
Nbrpm6Nce3Nae3Nc2DNS [Pep-DNS],Height of nanotubes (ex-situ AFM),[6],7.78 ± 0.07 nm
